Source: patent publication US20120010237A1, “COMPOUNDS HAVING ANTIPARASITIC OR ANTI-INFECTIOUS ACTIVITY” (The Government of the United States of America dba The …, priority 2008, published 2012)
Several values for one entry are separate records, joined by “and”; a condition that tells them apart may be missing. Equal entries are not always repeated. Where two headings read alike, the source gives them in different places.

Experiments:
[1] = test system: P. falciparum (D6, Dd2, Tm90.C2B); experiment: In vitro activity and pharmaco-resistance pattern against a panel of P. falciparum parasites; format: cell-based, Plasmodium falciparum; details: for reduction of potency relative to ELQ-121: in vitro, relative to the 5,7-difluoro parent ELQ-121; for cross-resistance / sensitivity pattern across strains: atovaquone-resistant Tm90.C2B compared with D6 and Dd2, in words; for antiplasmodial activity in vitro (in words): structure-activity comparison with endochin
Procedure: (§1) Plasmodium falciparum strains D6 and Dd2 were obtained from the MR4 (ATCC, Manassas, Va., USA). D6 is sensitive to chloroquine but mildly resistant to mefloquine while Dd2 is resistant to multiple quinoline and antifolate antimalarial agents. Tm90.C2B is resistant to atovaquone, chloroquine, mefloquine, and quinine.
(§2) Three different laboratory strains of P. falciparum were cultured in human erythrocytes by standard methods under a low oxygen atmosphere (5% O2, 5% CO2, 90% N2) in an environmental chamber as described in Trager, W., and J. B. Jensen. 1976. Human malaria parasites in continuous culture. Science 193:673-5. The culture medium was RPMI-1640, supplemented with 25 mM HEPES buffer, 25 mg/L gentamicin sulfate, 45 mg/L hypoxanthine, 10 mM glucose, 2 mM glutamine, and 0.5% Albumax II (complete medium). The parasites were maintained in fresh human erythrocytes suspended at a 2% hematocrit in complete medium at 37° C. Stock cultures were sub-passaged every 3 to 4 days by transfer of infected red cells to a flask containing complete medium and uninfected erythrocytes.
(§3) In vitro antimalarial activity of the compounds was assessed by the SYBR Green I fluorescence-based method (the “MSF assay”) described previously by Smilkstein, M., N. Sriwilaijaroen, J. X. Kelly, P. Wilairat, and M. Riscoe. 2004. Simple and inexpensive fluorescence-based technique for high-throughput antimalarial drug screening. Antimicrob Agents Chemother 48:1803-6 with minor modifications (Winter, R. W., J. X. Kelly, M. J. Smilkstein, R. Dodean, G. C. Bagby, R. K. Rathbun, J. I. Levin, D. Hinrichs, and M. K. Riscoe. 2006. Evaluation and lead optimization of anti-malarial acridones. Exp Parasitol 114:47-56). Experiments were set up in triplicate in 96 well plates (Costar, Corning) with two-fold dilutions of each drug across the plate in a total volume of 100 microliters and at a final red blood cell concentration of 2% (v/v). Stock solutions of each drug were prepared by dissolving in ethanol or dimethylsulfoxide (as appropriate) at 10 mM. […] Automated pipeting and dilution was carried out with the aid of a programmable Precision 2000 robotic station (BioTek, Winooski, Vt.). An initial parasitemia of 0.2% was attained by addition of normal uninfected red cells to a stock culture of asynchronous parasite infected red cells (PRBC). The plates were incubated for 72 hrs at 37° C. in an atmosphere of 5% CO2, 5% O2, and 90% N2. After this period the SYBR Green I dye-detergent mixture (100 μl) was added and the plates were incubated at room temperature for an hour in the dark and then placed in a 96-well fluorescence plate reader (Spectramax Gemini-EM, […]) for analysis with excitation and emission wavelength bands centered at 497 and 520 nm, respectively.
(§4) The compounds were screened for antiplasmodial activity in vitro against chloroquine (CQ) sensitive (D6), multidrug resistant (Dd2), and chloroquine/quinine/atovaquone (ATV)-resistant (Tm90.C2B) strains of P. falciparum.

[2] = test system: Plasmodium falciparum strain D6; experiment: SYBR Green I fluorescence-based MSF assay, in vitro antimalarial activity, strain D6; format: cell-based; details: chloroquine sensitive strain D6, 72 hrs incubation
Procedure: as §1, §2, §3, §4

malaria infections = details: mice to non-human primates (Rhesus monkeys); cited from earlier work
P. gallinaceum = P. gallinaceum in the chick; cited from earlier work
P. lophurae = P. lophurae in the turkey; cited from earlier work
[3] = test system: Plasmodium falciparum strain Tm90.C2B; format: cell-based
Procedure: as §1, §2
In vitro antimalarial activity of the compounds was assessed by the SYBR Green I fluorescence-based method (the “MSF assay”) described previously by Smilkstein, M., N. Sriwilaijaroen, J. X. Kelly, P. Wilairat, and M. Riscoe. 2004. Simple and inexpensive fluorescence-based technique for high-throughput antimalarial drug screening. Antimicrob Agents Chemother 48:1803-6 with minor modifications (Winter, R. W., J. X. Kelly, M. J. Smilkstein, R. Dodean, G. C. Bagby, R. K. Rathbun, J. I. Levin, D. Hinrichs, and M. K. Riscoe. 2006. Evaluation and lead optimization of anti-malarial acridones. Exp Parasitol 114:47-56). […] After this period the SYBR Green I dye-detergent mixture (100 μl) was added and the plates were incubated at room temperature for an hour in the dark and then placed in a 96-well fluorescence plate reader (Spectramax Gemini-EM, […]) for analysis with excitation and emission wavelength bands centered at 497 and 520 nm, respectively. […]

Haemoproteus = details: male gametocytes undergoing exflagellation, finches infected with Haemoproteus; cited from earlier work
P. cathemerium = details: P. cathemerium/canary; cited from earlier work
[4] = test system: Plasmodium falciparum strain Dd2; experiment: SYBR Green I fluorescence-based MSF assay, in vitro antimalarial activity, strain Dd2; format: cell-based; details: multidrug resistant strain Dd2, 72 hrs incubation
Procedure: as §1
Three different laboratory strains of P. falciparum were cultured in human erythrocytes by standard methods under a low oxygen atmosphere (5% O2, 5% CO2, 90% N2) in an environmental chamber as described in Trager, W., and J. B. Jensen. 1976. Human malaria parasites in continuous culture. Science 193:673-5. […]
In vitro antimalarial activity of the compounds was assessed by the SYBR Green I fluorescence-based method (the “MSF assay”) described previously by Smilkstein, M., N. Sriwilaijaroen, J. X. Kelly, P. Wilairat, and M. Riscoe. […] Simple and inexpensive fluorescence-based technique for high-throughput antimalarial drug screening. […] After this period the SYBR Green I dye-detergent mixture (100 μl) was added and the plates were incubated at room temperature for an hour in the dark and then placed in a 96-well fluorescence plate reader (Spectramax Gemini-EM, […]) for analysis with excitation and emission wavelength bands centered at 497 and 520 nm, respectively. […]

P. yoelii = format: in vivo
Procedure: The activity of the ester, ELQ-125, against the blood stages was assessed using a modified Thompson procedure (Arba Ager, 1984). Rodent malaria models, vol. 68/1. Springer-Verlag, Berlin. Mice (female, CFI) were infected intravenously with 1-5 million P. yoelii parasitized erythrocytes from a donor animal. Drug administration was initiated once the parasitemia had risen to between 3 to 5% as determined microscopically by examination of Giemsa-stained blood smears. The test compound, ELQ-125, was taken into NeoBee® M-5 (Stephan Company, Northfield, Ill., USA) and used without dilution. The drug was administered by gavage once daily for 3 days. On the 4th day blood films were prepared and the extent of parasitemia was determined microscopically. ED50 and ED90 values (mg/kg/day) were derived from the dose required to reduce the parasite burden by 50% and 90%, respectively, relative to drug-free controls. The procedures involved, together with all matters relating to the care and housing of the animals used in this study, were approved by the Portland VA Medical Center Institutional Animal Care and Use Committee (approval #0807).
Prodrugs containing a water-soluble pro-moiety that could be metabolically released after drug administration were designed and synthesized. […] In each case, ELQ-125, a clear and colorless syrup, was administered orally with NeoBee M-5 (vol.=100 μl).

[5] = test system: Toxoplasma gondii strain 2F; experiment: Anti-T. gondii assay with beta-galactosidase expressing 2F strain in HFF cells; format: cell-based; details: compared with the correlation observed for Plasmodium falciparum
Procedure: Determination of anti-T. gondii IC50 and TD50 values—use of the 2F strain. This method, which employs tachyzoites of Toxoplasma gondii strain 2F that constitutively expresses cytoplasmic Beta-galactosidase, has been described recently by Jones-Brando et al. (Jones-Brando, L., D'angelo, J., Posner, G H, and Yolken, R., 2006, In vitro inhibition of Toxoplasma gondii by four new derivatives of artemisinin, Antimicrobial Agents and Chemotherapy 50: 4206-8). […] Briefly, each drug was dissolved in ethanol or DMSO, as appropriate, at a concentration of 10 mM and diluted with complete Dulbecco's modified Eagle's medium (DMEM) to 1,000 μM. […] After this period, Triton X-100 is added to inactivate the parasite and the color reactions in the wells were read in a microplate reader. For anti-T. gondii IC50 determinations, the plates are read at 570-650 nm. The amount of absorbance (570-650 nm) in wells containing drug, parasites, and CPRG reagent is compared to that in control wells containing T. gondii, HFF cells and CPRG. The amount of absorbance in these wells is directly proportional to the amount of beta-galactosidase activity and thus correlative to the number of viable tachyzoites in each well. Thus, a decrease in the amount of absorbance indicates an inhibition of parasite growth. […]

[6] = chloroquine/quinine/atovaquone-resistant Tm90.C2B clinical isolate, 72 hrs incubation

CCCCCCCc1c(C)[nH]c2c(F)cc(F)cc2c1=O [6,8-difluoro positional isomer]
reduction of potency relative to ELQ-121 [1]: ≈ 2,000 fold

CCCCCCCc1c(C)[nH]c2cc(OC)ccc2c1=O [ELQ-100, endochin]
IC50 [2]: 3 to 4 nM and 3.8 nM
cure of malaria infections in mammalian species (malaria infections): failed to cure malaria infections
efficacy in treatment and prophylaxis (P. gallinaceum): demonstrated efficacy in treatment and prophylaxis
efficacy in treatment and prophylaxis (P. lophurae): demonstrated efficacy in treatment and prophylaxis
IC50 [3, 6]: 11.4 nM
gametocidal action (Haemoproteus): exerted gametocidal action
efficacy in bird model (P. cathemerium): efficacy in treatment and prevention of malaria
cross-resistance / sensitivity pattern across strains [1]: a modest level of ATV cross-resistance

COc1ccc2c(=O)c(CCCCCCCCCCC(F)(F)F)c(C)[nH]c2c1 [ELQ-103]
IC50 vs. D6 [2]: low nanomolar range
IC50 vs. Dd2 [4]: low nanomolar range
IC50 vs. Tm90.C2B [3, 6]: low nanomolar range

CCCCCCCc1c(O)[nH]c2cc(OC)ccc2c1=O [ELQ-106]
IC50 [2]: > 2500 nM

CCCCCCCc1c(C)[nH]c2cc(Cl)ccc2c1=O [ELQ-109]
IC50 [2]: 5.8 nM
antiplasmodial activity in vitro (in words) [1]: only a modest reduction in in vitro potency

CCCCCCCc1c(C)[nH]c2cc(O)ccc2c1=O [ELQ-117]
antiplasmodial activity in vitro (in words) [1]: greatly diminishes antiplasmodial activity

CCCCCCCc1c(C)nc2cc(F)cc(F)c2c1Cl [ELQ-119]
reduction of potency relative to ELQ-121 [1]: > 1,000 fold

CCCCCCCc1c(C)[nH]c2cc(F)ccc2c1=O [ELQ-120]
antiplasmodial activity in vitro (in words) [1]: only a modest reduction in in vitro potency

CCCCCCCc1c(C)[nH]c2cc(F)cc(F)c2c1=O [ELQ-121, 2-Methyl-3-(n-heptyl)-5.7-difluorquinolone]
IC50 [2]: ~0.05 nM
IC50 [4]: ~0.05 nM
IC50 against Tm90.C2B relative to D6 and Dd2 ([3]; times higher than IC50 against D6 and Dd2): about 300 times

CCCCCCCc1c(C)[nH]c2cc(Cl)cc(Cl)c2c1=O [ELQ-124]
antiplasmodial activity in vitro (in words) [1]: weak in vitro activity

CCCCCCCc1c(C)nc2cc(F)cc(F)c2c1OC(=O)OCCOCCOCCOCCOC [ELQ-125]
parasitemia suppressed relative to controls (P. yoelii; 25 mg/kg/day oral, 3 days, assessed on the day following the last dose): > 99%
parasite status during follow-up (P. yoelii; 25 mg/kg/day oral, 3 days, until euthanized 10 days later): remained parasite-free
clearance of parasites from the bloodstream (P. yoelii; 50 mg/kg/day oral in NeoBee M-5, once daily for 3 days, mice): completely cleared parasites from the bloodstream
clearance of parasites from the bloodstream (P. yoelii; 100 mg/kg/day oral in NeoBee M-5, once daily for 3 days, mice): completely cleared parasites from the bloodstream
ED90 (P. yoelii; oral in 100 μl NeoBee M5, once daily for 3 days, mice): 22 mg/kg/day
in vivo efficacy of the prodrug (in words) (P. yoelii; prodrug ester compared with ELQ-121): greatly enhanced in vivo efficacy

CCCCCCCc1c(C)[nH]c2ccccc2c1=O [ELQ-127]
cross-resistance / sensitivity pattern across strains [1]: equally active against all three parasite strains
in vitro activity weakened relative to endochin ([1]; relative to endochin): roughly 5 fold

CCCCCCCc1c(C)[nH]c2ccc(Cl)cc2c1=O [ELQ-130]
IC50 [2]: 22.2 nM
cross-resistance / sensitivity pattern across strains [1]: equal sensitivity is observed against the atovaquone-resistant Tm90.C2B clinical isolate

CCCCCCCc1c(C)n(C)c2cc(F)cc(F)c2c1=O [ELQ-134]
growth inhibitory activity against Toxoplasma gondii (in words) [5]: enhanced growth inhibitory activity
reduction of potency relative to ELQ-121 [1]: about 300 fold
